In US9487515B2, “Compounds modulating c-fms and/or c-kit activity and uses therefor” (Plexxikon Inc., priority 2006, dated 2016) one finds IC50 data, which are given here for 39 compounds.

Bounds are passed on as bounds.

The target in the test is c-kit (Homo sapiens, UniProt P10721). The experiment in a line: c-kit assays of Examples 40 and 41 (AlphaScreen kinase assays at 10 and 100 μM ATP, 33P-ATP filter assay, M-07e SCF-stimulated proliferation and phosphorylation).
Sequence of c-kit (P10721 with tags, fused parts or gaps): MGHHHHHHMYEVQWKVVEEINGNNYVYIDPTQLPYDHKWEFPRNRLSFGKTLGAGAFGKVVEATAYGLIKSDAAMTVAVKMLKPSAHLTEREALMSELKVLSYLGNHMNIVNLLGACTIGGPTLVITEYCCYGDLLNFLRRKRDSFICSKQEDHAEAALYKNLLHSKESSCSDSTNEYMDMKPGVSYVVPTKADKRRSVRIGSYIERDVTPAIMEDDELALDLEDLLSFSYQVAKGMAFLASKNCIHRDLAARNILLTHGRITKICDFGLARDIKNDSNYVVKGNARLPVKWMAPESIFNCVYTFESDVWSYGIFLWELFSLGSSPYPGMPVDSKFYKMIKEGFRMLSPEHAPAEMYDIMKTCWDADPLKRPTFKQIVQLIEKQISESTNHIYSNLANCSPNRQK
In turn, `Fc1ccc(C(F)(F)F)cc1CNc1ncc(Cc2c[nH]c3ncc(Cl)cc23)cn1` [P-0289, [5-(5-Chloro-1H-pyrrolo[2,3-b]pyridin-3-ylmethyl)-pyrimidin-2-yl]-(2-fluoro-5-trifluoromethyl-benzyl)-amine] showed an IC50 below 1000 nM.
Turning to `Fc1ccc(CNc2ncc(Cc3c[nH]c4ncc(Cl)cc34)s2)cc1` [P-0290, [5-(5-Chloro-1H-pyrrolo[2,3-b]pyridin-3-ylmethyl)-thiazol-2-yl]-(4-fluoro-benzyl)-amine], the IC50 was below 1000 nM.
The same measure for `Fc1ccc(C(F)(F)F)cc1CNc1ncc(Cc2c[nH]c3ncccc23)cn1` [P-0291, (2-Fluoro-5-trifluoromethyl-benzyl)-[5-(1H-pyrrolo[2,3-b]pyridin-3-ylmethyl)-pyrimidin-2-yl]-amine]: below 1000 nM; for `Fc1cc(CNc2ncc(Cc3c[nH]c4ncccc34)cn2)cc(C(F)(F)F)c1` [P-0294, (3-Fluoro-5-trifluoromethyl-benzyl)-[5-(1H-pyrrolo[2,3-b]pyridin-3-ylmethyl)-pyrimidin-2-yl]-amine]: below 1000 nM; for `Cc1cnc2[nH]cc(Cc3ccc(NCc4cc(F)ccc4F)nc3)c2c1` [P-0297, (2,5-Difluoro-benzyl)-[5-(5-methyl-1H-pyrrolo[2,3-b]pyridin-3-ylmethyl)-pyridin-2-yl]-amine]: below 1000 nM.
The same measure for `Fc1ccc(F)c(CNc2ccc(Cc3c[nH]c4ncc(Cl)cc34)cn2)c1` [P-0298, [5-(5-Chloro-1H-pyrrolo[2,3-b]pyridin-3-ylmethyl)-pyridin-2-yl]-(2,5-difluoro-benzyl)-amine]: below 1000 nM; for `Clc1ccccc1CNc1ncc(Cc2c[nH]c3ncccc23)cn1` [P-0301, (2-Chloro-benzyl)-[5-(1H-pyrrolo[2,3-b]pyridin-3-ylmethyl)-pyrimidin-2-yl]-amine]: below 1000 nM; for `FC(F)(F)c1ccccc1CNc1ncc(Cc2c[nH]c3ncccc23)cn1` [P-0302, [5-(1H-Pyrrolo[2,3-b]pyridin-3-ylmethyl)-pyrimidin-2-yl]-(2-trifluoromethyl-benzyl)-amine]: below 1000 nM.
The result for `Clc1ccc(CNc2ncc(Cc3c[nH]c4ncccc34)cn2)c(Cl)c1` [P-0305, (2,4-Dichloro-benzyl)-[5-(1H-pyrrolo[2,3-b]pyridin-3-ylmethyl)-pyrimidin-2-yl]-amine] reads below 1000 nM; that for `Fc1ccc(CNc2ncc(Cc3c[nH]c4ncccc34)cn2)c(F)c1` [P-0306, (2,4-Difluoro-benzyl)-[5-(1H-pyrrolo[2,3-b]pyridin-3-ylmethyl)-pyrimidin-2-yl]-amine], below 1000 nM; that for `Clc1ccc(CNc2ncc(Cc3c[nH]c4ncccc34)cn2)cc1` [P-0307, (4-Chloro-benzyl)-[5-(1H-pyrrolo[2,3-b]pyridin-3-ylmethyl)-pyrimidin-2-yl]-amine], below 1000 nM.
On to `FC(F)(F)c1ccc(CNc2ncc(Cc3c[nH]c4ncccc34)cn2)cc1` [P-0308, [5-(1H-Pyrrolo[2,3-b]pyridin-3-ylmethyl)-pyrimidin-2-yl]-(4-trifluoromethyl-benzyl)-amine], for which the IC50 is below 1000 nM.
The result for `Fc1c(CNc2ncc(Cc3c[nH]c4ncccc34)cn2)cccc1C(F)(F)F` [P-0309, (2-Fluoro-3-trifluoromethyl-benzyl)-[5-(1H-pyrrolo[2,3-b]pyridin-3-ylmethyl)-pyrimidin-2-yl]-amine] reads below 1000 nM; that for `Fc1c(Cl)cccc1CNc1ncc(Cc2c[nH]c3ncccc23)cn1` [P-0311, (3-Chloro-2-fluoro-benzyl)-[5-(1H-pyrrolo[2,3-b]pyridin-3-ylmethyl)-pyrimidin-2-yl]-amine], below 1000 nM; that for `FC(F)Oc1ccccc1CNc1ncc(Cc2c[nH]c3ncccc23)cn1` [P-0312, (2-Difluoromethoxy-benzyl)-[5-(1H-pyrrolo[2,3-b]pyridin-3-ylmethyl)-pyrimidin-2-yl]-amine], below 1000 nM.
The result for `Clc1cccc(CNc2ncc(Cc3c[nH]c4ncccc34)cn2)c1Cl` [P-0313, (2,3-Dichloro-benzyl)-[5-(1H-pyrrolo[2,3-b]pyridin-3-ylmethyl)-pyrimidin-2-yl]-amine] reads below 1000 nM; that for `Fc1cc(Cl)ccc1CNc1ncc(Cc2c[nH]c3ncccc23)cn1` [P-0314, (4-Chloro-2-fluoro-benzyl)-[5-(1H-pyrrolo[2,3-b]pyridin-3-ylmethyl)-pyrimidin-2-yl]-amine], below 1000 nM; that for `Fc1ccc(CNc2ncc(Cc3c[nH]c4ncccc34)cn2)c(Cl)c1` [P-0316, (2-Chloro-4-fluoro-benzyl)-[5-(1H-pyrrolo[2,3-b]pyridin-3-ylmethyl)-pyrimidin-2-yl]-amine], below 1000 nM.
The result for `Fc1cc(C(F)(F)F)ccc1CNc1ncc(Cc2c[nH]c3ncccc23)cn1` [P-0319, (2-Fluoro-4-trifluoromethyl-benzyl)-[5-(1H-pyrrolo[2,3-b]pyridin-3-ylmethyl)-pyrimidin-2-yl]-amine] reads below 1000 nM.
The compound `Fc1ccc(CNc2ncc(Cc3c[nH]c4ncccc34)cn2)c(C(F)(F)F)c1` [P-0320, (4-Fluoro-2-trifluoromethyl-benzyl)-[5-(1H-pyrrolo[2,3-b]pyridin-3-ylmethyl)-pyrimidin-2-yl]-amine] showed an IC50 below 1000 nM.
The same measure for `N#Cc1cnc2[nH]cc(Cc3ccc(NCc4ccccc4OC(F)(F)F)nc3)c2c1` [P-0321, 3-[6-(2-Trifluoromethoxy-benzylamino)-pyridin-3-ylmethyl]-1H-pyrrolo[2,3-b]pyridine-5-carbonitrile]: below 1000 nM; for `FC(F)(F)Oc1ccccc1CNc1ccc(Cc2c[nH]c3ncccc23)cn1` [P-0322, [5-(1H-Pyrrolo[2,3-b]pyridin-3-ylmethyl)-pyridin-2-yl]-(2-trifluoromethoxy-benzyl)-amine]: below 1000 nM.
The result for `CCOc1ccccc1CNc1ccc(Cc2c[nH]c3ncc(C#N)cc23)cn1` [P-0323, 3-[6-(2-Ethoxy-benzylamino)-pyridin-3-ylmethyl]-1H-pyrrolo[2,3-b]pyridine-5-carbonitrile] reads below 1000 nM; that for `Fc1cnc2[nH]cc(Cc3ccc(NCc4ccccc4C(F)(F)F)nc3)c2c1` [P-0325, [5-(5-Fluoro-1H-pyrrolo[2,3-b]pyridin-3-ylmethyl)-pyridin-2-yl]-(2-trifluoromethyl-benzyl)-amine], below 1000 nM.
The result for `COc1cnc2[nH]cc(Cc3ccc(NCc4ccccc4C(F)(F)F)nc3)c2c1` [P-0326, [5-(5-Methoxy-1H-pyrrolo[2,3-b]pyridin-3-ylmethyl)-pyridin-2-yl]-(2-trifluoromethyl-benzyl)-amine] reads below 1000 nM; that for `Fc1cnc2[nH]cc(Cc3ccc(NCc4ccccc4Cl)nc3)c2c1` [P-0327, (2-Chloro-benzyl)-[5-(5-fluoro-1H-pyrrolo[2,3-b]pyridin-3-ylmethyl)-pyridin-2-yl]-amine], below 1000 nM; that for `COc1cnc2[nH]cc(Cc3ccc(NCc4ccccc4Cl)nc3)c2c1` [P-0328, (2-Chloro-benzyl)-[5-(5-methoxy-1H-pyrrolo[2,3-b]pyridin-3-ylmethyl)-pyridin-2-yl]-amine], below 1000 nM.
Consider `Fc1ccc(F)c(CNc2ccc(Cc3c[nH]c4ncc(F)cc34)cn2)c1` [P-0329, (2,5-Difluoro-benzyl)-[5-(5-fluoro-1H-pyrrolo[2,3-b]pyridin-3-ylmethyl)-pyridin-2-yl]-amine], for which the IC50 is below 1000 nM.
The same measure for `COc1cnc2[nH]cc(Cc3ccc(NCc4cc(F)ccc4F)nc3)c2c1` [P-0330, (2,5-Difluoro-benzyl)-[5-(5-methoxy-1H-pyrrolo[2,3-b]pyridin-3-ylmethyl)-pyridin-2-yl]-amine]: below 1000 nM.
`COc1ccc(CNc2ccc(Cc3c[nH]c4ncc(F)cc34)cn2)cn1` [P-0331, [5-(5-Fluoro-1H-pyrrolo[2,3-b]pyridin-3-ylmethyl)-pyridin-2-yl]-(6-methoxy-pyridin-3-ylmethyl)-amine] yielded an IC50 below 1000 nM.
The result for `COc1cnc2[nH]cc(Cc3ccc(NCc4ccc(OC)nc4)nc3)c2c1` [P-0332, (6-Methoxy-pyridin-3-ylmethyl)-[5-(5-methoxy-1H-pyrrolo[2,3-b]pyridin-3-ylmethyl)-pyridin-2-yl]-amine] reads below 1000 nM; that for `COc1cnc2[nH]cc(Cc3ccc(NCc4c(F)cccc4F)nc3)c2c1` [P-0334, (2,6-Difluoro-benzyl)-[5-(5-methoxy-1H-pyrrolo[2,3-b]pyridin-3-ylmethyl)-pyridin-2-yl]-amine], below 1000 nM; that for `COc1ccccc1CNc1ccc(Cc2c[nH]c3ncccc23)cn1` [P-0336, (2-Methoxy-benzyl)-[5-(1H-pyrrolo[2,3-b]pyridin-3-ylmethyl)-pyridin-2-yl]-amine], below 1000 nM.
The same measure for `COc1ccccc1CNc1ccc(Cc2c[nH]c3ncc(C#N)cc23)cn1` [P-0337, 3-[6-(2-Methoxy-benzylamino)-pyridin-3-ylmethyl]-1H-pyrrolo[2,3-b]pyridine-5-carbonitrile]: below 1000 nM; for `FC(F)Oc1ccccc1CNc1ccc(Cc2c[nH]c3ncc(Cl)cc23)cn1` [P-0338, [5-(5-Chloro-1H-pyrrolo[2,3-b]pyridin-3-ylmethyl)-pyridin-2-yl]-(2-difluoromethoxy-benzyl)-amine]: below 1000 nM.
The result for `N#Cc1cnc2[nH]cc(Cc3ccc(NCc4ccccc4OC(F)F)nc3)c2c1` [P-0339, 3-[6-(2-Difluoromethoxy-benzylamino)-pyridin-3-ylmethyl]-1H-pyrrolo[2,3-b]pyridine-5-carbonitrile] reads below 1000 nM; that for `Fc1cccc(F)c1CNc1ccc(Cc2c[nH]c3ncccc23)cn1` [P-0340, (2,6-Difluoro-benzyl)-[5-(1H-pyrrolo[2,3-b]pyridin-3-ylmethyl)-pyridin-2-yl]-amine], below 1000 nM.
For the compound `Clc1ccc(CNc2ccc(Cc3c[nH]c4ncccc34)cn2)c(Cl)c1` [P-0342, (2,4-Dichloro-benzyl)-[5-(1H-pyrrolo[2,3-b]pyridin-3-ylmethyl)-pyridin-2-yl]-amine], the IC50 was below 1000 nM.
The result for `Fc1cccc(CNc2ccc(Cc3c[nH]c4ncccc34)cn2)c1` [P-0343, (3-Fluoro-benzyl)-[5-(1H-pyrrolo[2,3-b]pyridin-3-ylmethyl)-pyridin-2-yl]-amine] reads below 1000 nM.
